Results: patent US10934297B2, “5-heteroaryl substituted indazole-3-carboxamides and preparation and use thereof” (Samumed, LLC, priority 2018, dated 2021)

Legend:
[1] = system: Wnt activity (Sp5-Luc reporter in SW480 cells); assay: Screening assay for Wnt activity: Sp5-Luc reporter gene assay in SW480 colon carcinoma cells; assay type: cell-based, human; settings: Homo sapiens, 36 to 48 hours
Text: The screening assay for Wnt activity is described as follows. Reporter cell lines can be generated by stably transducing cancer cell lines (e.g., colon cancer) or primary cells (e.g., IEC-6 intestinal cells) with a lentiviral construct that includes a Wnt-responsive promoter driving expression of the firefly luciferase gene.
SW480 colon carcinoma cells were transduced with a lentiviral vector expressing luciferase with a human Sp5 promoter consisting of a sequence of eight TCF/LEF binding sites. SW480 cells stably expressing the Sp5-Luc reporter gene and a hygromycin resistance gene were selected by treatment with 150 μg/mL of hygromycin for 7 days. These stably transduced SW480 cells were expanded in cell culture and used for all further screening activities. […] For Sp5-Luc reporter gene assays, the cells were plated at 4,000 cells/well in 384-well plates with a DMEM medium containing 1% fetal bovine serum, and 1% Penicillin-Streptomycin and incubated for 36 to 48 hours at 37° C. and 5% CO2. Following incubation, 15 μl of BriteLite Plus luminescence reagent (Perkin Elmer) was added to each well of the 384-well assay plates. The plates were placed on an orbital shaker for 2 min and then luminescence was quantified using the Envision (Perkin Elmer) plate reader. Readings were normalized to DMSO only treated cells, and normalized activities were utilized for EC50 calculations using the dose-response log (inhibitor) vs. response-variable slope (four parameters) nonlinear regression feature available in GraphPad Prism 5.0 (or Dotmatics).

[2] = target: DYRK1A kinase (Homo sapiens (Human), UniProt Q13627); assay: DYRK1A kinase assay (Ser/Thr 18 peptide Z-lyte FRET); assay type: biochemical; settings: read-out: EC50 (method: IC50)
Method: Representative compounds were screened using the assay procedure for DYRK1A kinase activity as described below.
This is a non-radioactive assay using fluorescence resonance energy transfer (FRET) between coumarin and fluorescein to detect kinase activity which is represented as a ratio of coumarin emission/fluorescein emission.
The mixture was allowed to incubate with the representative compounds for one hour at room temperature. All reactions were performed in duplicate. Unphosphorylated (“0% Control”) and phosphorylated (“100% control”) forms of Ser/Thr 18 served as control reactions. Additionally, an 11-point dose-response curve of Staurosporine (1 uM top) was run to serve as a positive compound control.
After incubation, Development Reagent A was diluted in Development Buffer then added to the reaction and allowed to further incubate for one hour at room temperature.

[3] = target: GSK3β kinase (Homo sapiens (Human), UniProt P49841); assay: GSK3β kinase assay (Ser/Thr 09 peptide Z-lyte FRET); assay type: biochemical; settings: read-out: EC50 (method: IC50)
Sequence of GSK3β kinase (P49841 whole entry): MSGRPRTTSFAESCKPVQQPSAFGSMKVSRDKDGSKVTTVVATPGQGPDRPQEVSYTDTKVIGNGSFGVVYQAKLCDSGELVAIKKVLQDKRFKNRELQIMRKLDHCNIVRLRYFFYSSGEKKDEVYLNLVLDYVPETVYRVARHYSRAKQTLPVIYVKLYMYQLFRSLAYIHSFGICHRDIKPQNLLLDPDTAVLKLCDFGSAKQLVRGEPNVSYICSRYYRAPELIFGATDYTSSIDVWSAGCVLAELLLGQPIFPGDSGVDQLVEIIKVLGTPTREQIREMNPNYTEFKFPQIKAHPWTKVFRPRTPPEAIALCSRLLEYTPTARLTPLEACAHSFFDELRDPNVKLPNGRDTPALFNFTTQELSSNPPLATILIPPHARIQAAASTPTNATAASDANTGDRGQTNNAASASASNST
Method: Representative compounds were screened using the assay procedure for GSK3β kinase activity as described below.
This is a non-radioactive assay using fluorescence resonance energy transfer (FRET) between coumarin and fluorescein to detect kinase activity which is represented as ratio of coumarin emission/fluorescein emission.
The mixture is allowed to incubate with the representative compounds for one hour at room temperature. All reactions were performed in duplicate. Unphosphorylated (“0% Control”) and phosphorylated (“100% control”) forms of Ser/Thr 18 serve as control reactions.
After incubation, diluted Development Buffer is added to the reaction and allowed to further incubate for one hour at room temperature.
Dose-response curves are generated and inhibitory concentration (IC50) values are calculated using non-linear regression curve fit in the Dotmatics' Studies Software (Bishops Stortford, UK).

[4] = system: SW480 colon carcinoma cells; assay: Cell viability assay (CellTiter-Glo) in SW480 colon carcinoma cells; assay type: cell-based, human; settings: Homo sapiens, 96 h, four days
Method: Representative compounds were screened using the assay procedure to assess the effect on cell viability as described below.
SW480 colon carcinoma cells were transduced with a lentiviral vector expressing luciferase with a human Sp5 promoter consisting of a sequence of eight TCF/LEF binding sites. SW480 cells stably expressing the Sp5-Luc reporter gene and a hygromycin resistance gene were selected by treatment with 150 μg/mL of hygromycin for 7 days. These stably transduced SW480 cells were expanded in cell culture and used for all further screening activities.
For the Cell Viability Assays, the cells were plated at 2,000 cells/well in 384-well plates with a DMEM medium containing 1% fetal bovine serum, and 1% Penicillin-Streptomycin and incubated for […] at 37° C. and 5% CO2. Eight replicates of DMSO-treated cells served as controls and cells treated with compound were performed in duplicate.
After incubation, 10 μL of CellTiter-Glo (Promega) was added to each well allowed to incubate for approximately 12 minutes. This reagent “results in cell lysis and generation of a luminescent signal proportional to the amount of ATP present. The amount of ATP is directly proportional to the number of cells present in culture, in agreement with previous reports. The CellTiter-Glo® Assay generates a “glow-type” luminescent signal, produced by the luciferase reaction (Promega.com)”.

[5] = system: primary human fibroblasts derived from IPF patients (LL29 cells); assay: Inhibition of the fibrotic process: αSMA staining in TGF-β1 treated LL29 fibroblasts; assay type: cell-based; settings: Homo sapiens, Fibroblast, 96 h; LL29 cells, TGF-β1 20 ng/mL, 4 days, % αSMA positive cells
Method: Representative compounds were screened using primary human fibroblasts (derived from IPF patients) treated with TGF-β1 to determine their ability to inhibit the fibrotic process.
LL29 cells were plated at 1,500 cells/well in 70 μL/well F12 medium supplemented with 1% Fetal Bovine Serum. […] Wells treated with TGF-β1 and containing DMSO were used as positive control, and cells with only DMSO were negative control. […] Following incubation for 4 days, SYTOX green nucleic acid stain (Life Technologies [Thermo Fisher Scientific]) was added to the wells at a final concentration of 1 μM and incubated at room temperature for 30 min.

EC50 [1] [µM] | IC50 [2] [µM] | IC50 [3] [µM] | EC50 [4] [µM] | Structure (SMILES) | EC50 [5] [µM]
0.411 | 0.004 | 0.026 | 2.83 | Cn1cc(-c2cc3c(C(=O)Nc4ccc(CN5CCOCC5)cc4)n[nH]c3cc2F)cn1 [Compound 77, 6-Fluoro-5-(1-methyl-1H-pyrazol-4-yl)-N-(4-(morpholinomethyl)phenyl)-1H-indazole-3-carboxamide] | 0.291
> 10 | 9.94 | 9.37 | > 10 | CC(C)(F)CN1CCC(n2cc(-c3ccc4[nH]nc(C(=O)Nc5ccc(OC(F)F)cc5)c4c3)cn2)CC1 [Compound 61, N-(4-(difluoromethoxy)phenyl)-5-(1-(1-(2-fluoro-2-methylpropyl)piperidin-4-yl)-1H-pyrazol-4-yl)-1H-indazole-3-carboxamide] | 0.009
– | 0.028 | 0.029 | – | Cc1ncc(-c2ccc3[nH]nc(C(=O)NC4CCN(CC(C)(C)F)CC4)c3c2)n1C [Compound 42, 5-(1,2-Dimethyl-1H-imidazol-5-yl)-N-(1-(2-fluoro-2-methylpropyl)piperidin-4-yl)-1H-indazole-3-carboxamide] | –
0.937 | 0.016 | 0.021 | 1.7 | O=C(Nc1ccc(OC(F)F)cc1)c1n[nH]c2ccc(-c3cnc4n3CCNC4)cc12 [Compound 64, N-(4-(Difluoromethoxy)phenyl)-5-(5,6,7,8-tetrahydroimidazo[1,2-a]pyrazin-3-yl)-1H-indazole-3-carboxamide] | 1.53
– | 0.007 | 0.007 | – | C[C@H]1C[C@H](NC(=O)c2n[nH]c3ccc(-c4cnn(C)c4)cc23)CCN1CC(C)(C)F [Compound 44, N-((2S,4R)-1-(2-fluoro-2-methylpropyl)-2-methylpiperidin-4-yl)-5-(1-methyl-1H-pyrazol-4-yl)-1H-indazole-3-carboxamide] | –
> 10 | > 10 | > 10 | 9.24 | CN1CCC(NC(=O)c2n[nH]c3ccc(-c4cc(C(F)(F)F)nn4C)cc23)CC1 [Compound 29, 5-(1-Methyl-3-(trifluoromethyl)-1H-pyrazol-5-yl)-N-(1-methylpiperidin-4-yl)-1H-indazole-3-carboxamide] | > 10
2.28 | 3.92 | > 10 | > 10 | O=C(Nc1ccc(OC(F)F)cc1)c1n[nH]c2ccc(-c3cnn(C4CCOCC4)c3)cc12 [Compound 62, N-(4-(Difluoromethoxy)phenyl)-5-(1-(tetrahydro-2H-pyran-4-yl)-1H-pyrazol-4-yl)-1H-indazole-3-carboxamide] | 3.1
0.549 | 0.009 | 0.035 | 1 | Cn1cc(-c2cc3c(C(=O)Nc4ccc(CN5CC(F)C5)cc4)n[nH]c3cc2F)cn1 [Compound 67, 6-Fluoro-N-(4-((3-fluoroazetidin-1-yl)methyl)phenyl)-5-(1-methyl-1H-pyrazol-4-yl)-1H-indazole-3-carboxamide] | 0.15
1.84 | 0.027 | 0.001 | > 10 | O=C(Nc1ccc(F)cc1)c1n[nH]c2ccc(-c3nnc4n3CCNC4)cc12 [Compound 53, N-(4-Fluorophenyl)-5-(5,6,7,8-tetrahydro-[1,2,4]triazolo[4,3-a]pyrazin-3-yl)-1H-indazole-3-carboxamide] | > 10
> 10 | > 10 | > 10 | > 10 | Cn1cc(-c2cc(Cl)c3[nH]nc(C(=O)NC4CCC(F)(F)CC4)c3c2)cn1 [Compound 17, 7-Chloro-N-(4,4-difluorocyclohexyl)-5-(1-methyl-1H-pyrazol-4-yl)-1H-indazole-3-carboxamide] | 1.2
4.58 | 0.19 | 0.674 | > 10 | O=C(Nc1ccc(F)cc1)c1n[nH]c2ccc(-c3cnn(C4CNC4)c3)cc12 [Compound 47, 5-(1-(Azetidin-3-yl)-1H-pyrazol-4-yl)-N-(4-fluorophenyl)-1H-indazole-3-carboxamide] | 5.21
1.09 | 1.05 | 5.38 | 0.57 | O=C(Nc1ccc(OC(F)F)cc1)c1n[nH]c2ccc(-c3cnn(C4CCNCC4F)c3)cc12 (stereo not drawn) [Compound 57, N-(4-(Difluoromethoxy)phenyl)-5-(1-(3-fluoropiperidin-4-yl)-1H-pyrazol-4-yl)-1H-indazole-3-carboxamide] | 0.597
1.5 | 0.053 | 3.02 | 0.328 | CN1CCC(n2cc(-c3ccc4[nH]nc(C(=O)Nc5ccc(OC(F)F)cc5)c4c3)cn2)CC1 [Compound 58, N-(4-(Difluoromethoxy)phenyl)-5-(1-(1-methylpiperidin-4-yl)-1H-pyrazol-4-yl)-1H-indazole-3-carboxamide] | 5.14
> 10 | 0.618 | 0.788 | 6.02 | CC(C)(C)n1cc(-c2ccc3[nH]nc(C(=O)N[C@H]4CC[C@H](CN5CC(F)C5)CC4)c3c2)cn1 [Compound 25, 5-(1-(tert-Butyl)-1H-pyrazol-4-yl)-N-((1R,4R)-4-((3-fluoroazetidin-1-yl)methyl)cyclohexyl)-1H-indazole-3-carboxamide] | 1.89
1.29 | 0.107 | 0.302 | 6.2 | Cn1cc(-c2cc3c(C(=O)Nc4ccc(CN5CCC(F)(F)CC5)cc4)n[nH]c3cc2F)cn1 [Compound 76, N-(4-((4,4-Difluoropiperidin-1-yl)methyl)phenyl)-6-fluoro-5-(1-methyl-1H-pyrazol-4-yl)-1H-indazole-3-carboxamide] | 0.174

Structure (SMILES) | EC50 [1] [µM] | IC50 [2] [µM] | IC50 [3] [µM] | EC50 [4] [µM] | EC50 [5] [µM]
O=C(Nc1ccc(F)cc1)c1n[nH]c2ccc(-c3cnc4n3CCNC4)cc12 [Compound 52, N-(4-Fluorophenyl)-5-(5,6,7,8-tetrahydroimidazo[1,2-a]pyrazin-3-yl)-1H-indazole-3-carboxamide] | > 10 | 0.011 | 0.011 | – | –
